Data taken from patent publication US4233309A, “Novel 1-substituted-3-acylpyrrole derivatives, platelet aggregation inhibitors containing them, as active ingredients, and processes for production of said derivatives” (Teijin Limited, priority 1977, dated 1980).
Read-outs that look alike come from different tables or passages of the source.

Key:
[1] = tested on: platelet aggregation (guinea pig PRP, extra vivo); experiment: Inhibitory effect of compounds on platelet aggregation in extra vivo (Table 4); design: species or system Hartley-strain guinea pigs; conditions: Cavia porcellus, 100 mg/kg, route PS [sic], 1 h
Method: The effect of the compounds shown in Table 4 on platelet aggregation was assessed using guinea pig in extra vivo.
Each of the test compounds was dissolved in propylene glycol so that its concentration became 100 mg/ml (dosage corresponded to 100 mg/kg) and 30 mg/ml (dosage corresponded to 30 mg/kg). The drug solution was administered either orally or subcutaneously to Hartley-strain guinea pigs (3 per group) having a body weight of 300 to 350 g. As a control, propylene glycol was administered. One hour after the administration, citrated blood was taken out by cardiac puncture, and centrifuged to obtain PRP (see Example 67).
In the case of oral administration, the animals had been fasted overnight.
Into a quvett set in a holder of an aggregometer and prewarmed at 37° C. with stirring, was put 450 μl of the above PRP, and then 50 μl of an aggregating agent was added. The aggregation curve was recorded for an additional 3 minutes, and an increase in light transmittance through PRP after 3 minutes (TB) was recorded (see Example 67). As a control, an increase of transmittance of PRP taken from a guinea pig group administered with propylene glycol alone (TA) was recorded in the same way above. The percent inhibitions were calculated in accordance with the following equation. [formula]
As the aggregating agent, sodium arachidonate (a final concentraton of 0.03 mM) and a collagen suspension (a final concentration of 5 μg/ml) were used.
The percent inhibitions in the above table are averages of three guinea pigs. For details of the above extra vivo test about inhibition of platelet aggregation, the literature references described in Example 67 may be referred to.

carrageenan edema = experiment: Antiinflammatory activity (carrageenan edema of rat paw, Table 5); type: in vivo, Sprangue-Dawley (SD) male rats; conditions: 100 mg/kg orally, 3 h after 1% carrageenan
Method: Sprangue-Dawley (SD) male rats with a body weight of 160 to 180 g, four in each group, were used. The volume of the left leg was measured, and each of the test compounds shown in Table 5 (100 mg/kg dissolved in polyethylene glycol so as to provide a volume of 2 ml/kg) was orally administered. One hour later, 0.1 ml of 1% carrageenan (dissolved in physiological saline) as an inflammation-inducing substance was subcutaneously injected to the paw of the left hind leg. A control group was orally administered with 2 ml/kg of polyethylene glycol. As a positive control, 25 mg/kg of Ibprofen was similarly administered. Three hours after the injection of 1% carrageenan, the volume of the left leg was measured, and the ratio of edema was calculated from the volume before the administration of the carrageenan. The percent inhibition of edema in comparison with the control group was determined.

[2] = tested on: platelet aggregation (platelet-rich plasmas (PRP) of guinea pigs); experiment: Activity of inhibiting platelet aggregation in vitro, guinea pig PRP, sodium arachidonate as aggregating agent (Table 1); type: cell-based, Hartley-strain male guinea pigs; conditions: Cavia porcellus, sodium arachidonate 0.03 mM final, 37° C., final concentration, read-out: IC50 (minimum concentration of drug which showed a percent inhibition of more than 50%)
Method: Some 1-substituted-3-acylpyrrole derivatives and other drugs were tested for platelet aggregation inhibiting activities in vitro using platelet-rich plasmas (PRP) of man and guinea pigs. The results are shown as minimum concentration of drugs which inhibit more than 50% of platelet aggregation induced by several aggregating agents.
In experiments with PRP of guinea pigs, sodium arachidonate (final concentration 0.03 mM) was used as an aggregating agent. In experiments with human PRP, sodium arachidonate (final concentration 0.1 mM), collagan suspension (final concentration 10 μg/ml), epinephrine solution (final concentration 20 μg/ml; for secondary aggregation), an epinephrine solution (final concentration 2 μg/ml; for primary aggregation) and ADP (final concentration 5 μM) were used as aggregating agents.
In an experiment with guinea pig PRP, citrated blood (containing 0.38% sodium citrate as a final concentration) was withdrawn by cardiac puncture from Hartley-strain male guinea pigs having a body weight of 350 to 600 g. The citrated blood was centrifuged at 1,000 rpm for 10 minutes at room temperature, and the supernatant platelet suspension (PRP) was separated.
The PRP was stored at room temperature, and used as soon as possible. Those which had been stored for more than 4 hours after preparation were not used.
For each test, a drug is dissolved in dimethylsulfoxide to a concentration of 10 mg/ml, and diluted with physiological saline to form 1 ml each of solutions having a concentration of 2500 μg/ml, 1000 μg/ml, 750 μg/ml, 500 μg/ml, 250 μg/ml and 100 μg/ml. A compound having a free carboxylic acid as a residue such as indomethacine and Ibprofen was dissolved in 0.1 M NaHCO3 to form a sodium salt solution having a concentration of 10 mg/ml. Then, the solution was diluted with physiological saline in the same way as above to form a test drug solution.
Arachidonic acid (99% pure, a product of Sigma Co., Ltd.) was dissolved in 0.1 M NaHCO3, and a 3.3 mM solution of sodium arachidonate was prepared. The solution was diluted with physiological saline to a concentration of 1 mM and used in the experiments. The 3.3 mM solution was stored in a refrigerator as a stock solution, and the 1 mM solution was newly prepared from the stock solution every time it was used.
Physiological saline (50 μl) and 50 μl of the aggregating agent solution were added to 400 μl of PRP which had been pre-warmed and stirred at 37° C. in a quvett set in a holder of an aggregometer. Platelet aggregation was thus initiated, and the change of light transmittance through a stirred platelet suspension was recorded for 3 minutes by a recorder joined to the aggregometer. An increase in transmittance after 3 minutes (T0) was used as a parameter of the rate of platelet aggregation in control experiments.
To 400 μl of PRP in a quvett was added 50 μl of a test drug solution. The mixture was pre-incubated and stirred for 2 minutes at 37° C. Then 50 μl of the aggregating agent was added to drug containing PRP and again aggregation responses were recorded as increases in light transmittance after 3 minutes (T1) in the same way as in (1) above. Percent inhibition was calculated from the formula [formula]
For the above in vitro test for the inhibition of platelet aggregation, reference may be had to H. M. Davis, J. Phyllis, K. Paul and W. Terry: Thromb. Res. 11, 217-226 (1977) and R. E. Anderson and J. G. Foulks: Thromb. Haemos. 36, 343-359 (1976).

[3] = tested on: biosynthesis of prostaglandins (microsomes of the seminal vesicle of bovine); experiment: Inhibitory effect on prostaglandin biosynthesis in vitro (Table 3); type: biochemical; conditions: 4 μg/ml sodium arachidonate, bioassay on rat fundus stomach strips
Method: Sprangue-Dawley rats (male, 180-200 g) were fasted overnight, and killed by blow on the head. The stomach was isolated, and fundus stomach strips were prepared. The smooth muscle strips were perfused with Krebs-Hensleit solution (gassed with 95% O2 +5% CO2 gas) of 37° C. at a rate of […]. The Krebs-Hensleit solution contained 0.1 μg/ml of atropine, 0.1 μg/ml of phenoxybenzamine, 3 μg/ml of propranolol, 0.1 μg/ml of tripelennamine, and 0.2 μg/ml of methylsergide to prevent the effect of smooth muscle contracting substances, and 1 μg/ml of indomethacine to inhibit the biosynthesis of prostaglandin by the smooth muscles. Then, 150 μl of a reaction solution containing biologically synthesized prostaglandin was added to the perfusion solution, and the amount of the biologically synthesized prostaglandin was measured from the contraction of the smooth muscles. The contraction of the smooth muscles was recorded on a recorder using an isotonic transducer.
The reaction solution containing biologically synthesized prostaglandin was prepared in the following manner.
To 0.4 mg/ml of microsomes of the seminal vesicle of bovine were added 5 mM of L-tryptophan, 0.025 μM of bovine hemoglobin and 3 mμ of glutathione as cofactors. The mixture was incubated together with each of the test compounds shown in Table 4 at 37° C. for 2 minutes, and immediately then, 4 μg/ml of sodium arachidonate was added. The mixture was further incubated at 37° C. for 10 minutes, and immediately then, the prostaglandin activity of the reaction solution was measured by bioassay.
The microsomes of the seminal vesicle of bovine had been prepared by suspending microsomes of the seminal vesicle of bovine (a product of Miles Laboratories, Inc.) in a 50 mM Tris.HCl buffer (pH 7.4) using a glass homogenizer, and stored in ice water prior to use.
ID50 denotes the concentration of each test compound required to inhibit the biosynthesis of prostaglandins by 50%.

CC(=O)OCC(C)n1c(C)cc(C(=O)c2ccccc2)c1C (centres unmarked) [Compound 306, 2-(3-benzoyl-2,5-dimethylpyrrol-1-yl)-2-methylethyl acetate]
inhibition at 100 mg/kg ([1]; collagen 5 μg/ml, read-out: Percent inhibition of platelet aggregation, collagen): 34% | inhibition at 100 mg/kg ([1]; sodium arachidonate 0.03 mM, read-out: Percent inhibition of platelet aggregation, sodium arachidonate): 62% | Percent inhibition of edema (carrageenan edema): 16% | IC50 [2]: 7.5 µg/mL | ID50 (concentration required to inhibit the biosynthesis of prostaglandins by 50%) [3]: 5.6 µg/mL
